Source: the NIST ThermoML archive (doi:10.1007/s10765-013-1487-y)
“And” between values parts separate entries of the source, which are not always exact repeats. Identical values can stand only once.

Conditions: 101.33 kPa, Liquid; for mass density: Vibrating tube method

CCOS(=O)(=O)[O-].CCn1cc[n+](C)c1 [1-ethyl-3-methylimidazolium ethyl sulfate]
Conditions | mass density
290.65 K | 1243.24 kg/m3
290.66 K | 1243.24 kg/m3
293.15 K | 1241.55 kg/m3
293.16 K | 1241.54 kg/m3
295.65 K | 1239.85 kg/m3
298.15 K | 1238.14 kg/m3 and 1238.15 kg/m3
298.16 K | 1238.15 kg/m3
300.65 K | 1236.44 kg/m3 and 1236.46 kg/m3
300.66 K | 1236.45 kg/m3
303.15 K | 1234.75 kg/m3 and 1234.76 kg/m3
305.64 K | 1233.06 kg/m3
305.65 K | 1233.06 kg/m3
305.66 K | 1233.06 kg/m3
308.14 K | 1231.37 kg/m3
308.15 K | 1231.37 kg/m3
308.16 K | 1231.37 kg/m3
310.64 K | 1229.68 kg/m3 and 1229.69 kg/m3
310.66 K | 1229.68 kg/m3
313.15 K | 1228 kg/m3
315.64 K | 1226.32 kg/m3
315.66 K | 1226.31 kg/m3
318.15 K | 1224.63 kg/m3 and 1224.64 kg/m3
320.65 K | 1222.96 kg/m3

viscosity [mPa·s]
Conditions | 293.14 K | 293.23 K | 298.18 K | 298.19 K | 303.15 K | 308.21 K | 313.14 K | 318.13 K
Capillary tube (Ostwald / Ubbelohde) method | – | 128.62 | 99.37 | – | – | – | – | –
Vibrating wire viscometry | 125.7 | – | – | 97.19 | 76.8 | 61.42 | 50.05 | 41.42

CCOS(=O)(=O)[O-].CC[n+]1cccc(C)c1 [1-ethyl-3-methylpyridinium ethylsulfate]
Capillary tube (Ostwald / Ubbelohde) method
Conditions | viscosity [mPa·s]
293.16 K | 182.68
298.13 K | 135.35

CCCCCC[n+]1ccn(C)c1.O=S(=O)([N-]S(=O)(=O)C(F)(F)F)C(F)(F)F
Capillary tube (Ostwald / Ubbelohde) method
Conditions | viscosity [mPa·s]
293.25 K | 89.98
298.19 K | 71.11
